Experimental data taken from the supplement of paper PMC10307832.

Tests used:
Experiment in all cases: relative viability (nuclei count vs DMSO), 5 days (fraction); higher = more cells survive
Tanzisertib + Trametinib = compound: O[C@H]1CC[C@H](Nc2ncc3nc(Nc4c(F)cc(F)cc4F)n([C@H]4CCOC4)c3n2)CC1 [Tanzisertib] + CC(=O)Nc1cccc(-n2c(=O)n(C3CC3)c(=O)c3c(Nc4ccc(I)cc4F)n(C)c(=O)c(C)c32)c1 [Trametinib] (partner 0.02 µM)
In short: (§1)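 Five library-drug doses in √10 steps were combined with a fixed anchor-drug dose, or a single drug was given alone, by pin tool to lung cancer cell lines in 1536-well plates the day after seeding. Nuclei were stained and counted after 5 days. Relative viability is the nuclei count in treated wells over that in vehicle wells, taken as the median of duplicate plates.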

[1] = compound: C1CNCCC1C2=CC(=NN2)C3=CC=NC=C3 + O=C(c1cc(Cc2n[nH]c(=O)c3ccccc23)ccc1F)N1CCN(C(=O)C2CC2)CC1 [Olaparib] (partner 8 µM)
In short: as §1

[2] = compound: C[C@@H](N)c1ccc(C(=O)Nc2ccnc3[nH]ccc23)cc1 + CS(=O)(=O)N1CCN(Cc2cc3nc(-c4cccc5[nH]ncc45)nc(N4CCOCC4)c3s2)CC1 [Pictilisib] (partner 1 µM)
In short: as §1

[3] = compound: C[C@@H](N)c1ccc(C(=O)Nc2ccnc3[nH]ccc23)cc1 + Nc1nc2[nH]cc(CCc3ccc(C(=O)N[C@@H](CCC(=O)O)C(=O)O)cc3)c2c(=O)[nH]1 [Pemetrexed] (partner 0.2 µM)
In short: as §1

Cell Line | relative viability (Tanzisertib + Trametinib; first compound 0.08 µM) | relative viability (Tanzisertib + Trametinib; first compound 0.253 µM) | relative viability (Tanzisertib + Trametinib; first compound 0.8 µM) | relative viability (Tanzisertib + Trametinib; first compound 2.53 µM) | relative viability (Tanzisertib + Trametinib; first compound 8 µM) | relative viability ([1]; first compound 0.08 µM) | relative viability ([1]; first compound 2.53 µM) | relative viability ([1]; first compound 8 µM) | relative viability ([2]; first compound 0.04 µM) | relative viability ([2]; first compound 0.1265 µM) | relative viability ([2]; first compound 0.4 µM) | relative viability ([2]; first compound 4 µM) | relative viability ([3]; first compound 0.04 µM) | relative viability ([3]; first compound 0.1265 µM) | relative viability ([3]; first compound 0.4 µM) | relative viability ([3]; first compound 4 µM) | relative viability ([1]; first compound 0.8 µM) | relative viability ([2]; first compound 1.265 µM) | relative viability ([3]; first compound 1.265 µM)
NCI-H23 | 0.389 | 0.357 | 0.418 | 0.367 | 0.419 | 0.375 | 0.403 | 0.349 | 0.605 | 0.536 | 0.487 | 0.557 | 0.619 | 0.744 | 0.848 | 0.754 | – | – | –
NCI-H1993 | 0.638 | 0.428 | 0.55 | 0.499 | 0.522 | 0.937 | 1.02 | 1.21 | 0.801 | 0.865 | – | 0.833 | 0.652 | 0.653 | – | 0.642 | 0.918 | 0.812 | 0.632
HCC-827 | 0.556 | 0.552 | 0.481 | 0.411 | 0.265 | 0.597 | 0.665 | 0.743 | 1.22 | 1.27 | 1.12 | 0.783 | – | 0.272 | 0.268 | 0.264 | 0.0303 | 0.978 | 0.292
NCI-H650 | 0.975 | 0.946 | 1.06 | 0.983 | 0.874 | 0.4 | 0.376 | 0.405 | 0.81 | 0.753 | 0.704 | 0.708 | – | 0.932 | 0.809 | 0.614 | 0.424 | – | –
CAL-12T | 0.317 | 0.336 | 0.396 | 0.387 | 0.432 | 0.676 | 0.753 | 0.719 | 0.544 | 0.76 | 0.66 | 0.437 | 1.23 | 1.39 | 1.43 | 1.27 | 0.665 | – | 1.49
NCI-H838 | 0.705 | 0.566 | 0.506 | 0.529 | 0.49 | 0.708 | 0.815 | 0.799 | 0.402 | 0.421 | 0.335 | 0.317 | 0.259 | 0.244 | 0.24 | 0.181 | 0.795 | 0.31 | 0.205
NCI-H2228 | 0.581 | 0.34 | 0.806 | 0.362 | 0.259 | 0.617 | 0.575 | 0.549 | 0.441 | 0.503 | 0.335 | 0.491 | 0.342 | 0.385 | 0.302 | 0.327 | 0.747 | 0.319 | 0.347
RERF-LC-KJ | 0.863 | 0.919 | 0.959 | 0.782 | 0.834 | 0.849 | 0.945 | 0.954 | 0.575 | 0.541 | 0.558 | 0.492 | 0.496 | 0.486 | 0.472 | 0.424 | 0.873 | 0.585 | 0.47
NCI-H661 | 0.684 | 0.574 | 0.55 | 0.647 | 0.54 | 0.705 | 0.75 | 0.733 | 0.433 | 0.54 | 0.454 | 0.509 | 0.938 | 0.964 | 0.943 | 0.639 | 0.757 | 0.351 | 0.811
